The IC50 is the concentration needed to halve the response being measured.

The structures appear in SMILES notation.

Assay [1] deals with T1, Recombinant STAT6 protein (STAT6 (W123-T658)) (Homo sapiens, UniProt P42226).
T1 construct: Recombinant STAT6 protein (STAT6 (W123-T658))
T1 sequence (P42226 123-658): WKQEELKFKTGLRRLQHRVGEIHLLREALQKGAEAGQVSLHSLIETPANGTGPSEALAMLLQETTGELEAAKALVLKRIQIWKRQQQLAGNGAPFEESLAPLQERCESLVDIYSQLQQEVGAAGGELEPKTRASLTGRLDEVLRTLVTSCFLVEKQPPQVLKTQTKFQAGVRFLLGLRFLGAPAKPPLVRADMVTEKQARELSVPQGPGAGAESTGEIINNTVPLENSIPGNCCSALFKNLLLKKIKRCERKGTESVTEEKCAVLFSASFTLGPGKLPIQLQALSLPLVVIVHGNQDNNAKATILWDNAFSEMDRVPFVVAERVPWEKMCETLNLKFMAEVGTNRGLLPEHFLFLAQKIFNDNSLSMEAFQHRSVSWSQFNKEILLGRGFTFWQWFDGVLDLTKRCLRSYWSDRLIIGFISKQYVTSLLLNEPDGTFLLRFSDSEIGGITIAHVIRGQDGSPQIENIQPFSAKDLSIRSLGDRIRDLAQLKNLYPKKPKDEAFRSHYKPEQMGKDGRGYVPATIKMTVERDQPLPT
Kind of assay: STAT6 Fluorescence Polarization (FP) Assay. The format is binding. Conditions: STAT6 (W123-T658) 250 nM, probe 5-FAM-Ap[…]-NH2 2 nM, 45-minute incubation; read-out: STAT6 (FP assay IC50 class). Put shortly:
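Displacement of a fluorescent phosphotyrosine peptide (2 nM) from 250 nM STAT6 (W123-T658) is measured by polarization after a 45-minute room-temperature incubation. Compounds are titrated serially at 1% DMSO, and IC50 values derive from regression of mP on log concentration.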

The target in assay [2] is T2, Recombinant STAT3 protein (STAT3 (G127-I722)) (Homo sapiens, UniProt P40763).
T2 construct: Recombinant STAT3 protein (STAT3 (G127-I722))
T2 sequence (P40763 127-722): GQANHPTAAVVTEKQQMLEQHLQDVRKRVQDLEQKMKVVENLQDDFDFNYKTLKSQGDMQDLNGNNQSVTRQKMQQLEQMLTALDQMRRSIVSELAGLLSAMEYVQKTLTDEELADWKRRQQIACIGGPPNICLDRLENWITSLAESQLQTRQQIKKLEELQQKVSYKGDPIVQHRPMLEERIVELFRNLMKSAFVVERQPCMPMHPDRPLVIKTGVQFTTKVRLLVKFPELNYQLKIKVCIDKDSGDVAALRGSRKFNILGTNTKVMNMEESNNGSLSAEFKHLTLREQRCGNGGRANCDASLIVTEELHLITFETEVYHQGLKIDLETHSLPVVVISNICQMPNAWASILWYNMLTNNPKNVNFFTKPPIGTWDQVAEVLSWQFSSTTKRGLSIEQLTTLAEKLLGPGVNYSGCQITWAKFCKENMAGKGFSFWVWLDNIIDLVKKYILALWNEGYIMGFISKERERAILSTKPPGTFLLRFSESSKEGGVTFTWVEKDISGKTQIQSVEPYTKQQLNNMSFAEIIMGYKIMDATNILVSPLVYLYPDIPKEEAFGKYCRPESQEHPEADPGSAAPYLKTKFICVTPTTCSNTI
Nature of the assay: STAT3 Fluorescence Polarization (FP) Assay. It is filed as binding. Conditions: STAT3 (G127-I722) 25 nM, probe 5-FAM-GpYLPQTV-NH2 2 nM, 45-minute incubation; read-out: STAT3 (FP assay IC50 class). Put shortly: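 Displacement of a fluorescent phosphotyrosine peptide (5-FAM-GpYLPQTV-NH2, 2 nM) from 25 nM recombinant STAT3 G127-I722 was monitored by FP after 45 min at room temperature.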

As to `COc1ccn(C2CN(C(=O)[C@@H]3CC[C@@H]4CCC[C@H](NC(=O)c5cc6cc(C(F)P(=O)(O)O)ccc6s5)C(=O)N43)C2)n1` (stereo partly drawn) [Compound 633, (fluoro(2-(((3S,6S,9aS)-3-(3-(3-methoxy-1H-pyrazol-1-yl)azetidine-1-carbonyl)-5-oxooctahydro-1H-pyrrolo[1,2-a]azepin-6-yl)carbamoyl)benzo [b]thiophen-5-yl)methyl) phosphonic acid], the IC50 in assay [1] was 3000 to 30000 nM; in assay [2], 100 to 1000 nM.
On the same counts, the results for `Cn1ncc(C2CN(C(=O)[C@@H]3CC[C@@H]4CCC[C@H](NC(=O)c5cc6cc(C(F)P(=O)(O)O)ccc6s5)C(=O)N43)C2)c1F` (stereo partly drawn) [Compound 635, (fluoro(2-(((3S,6S,9aS)-3-(3-(5-fluoro-1-methyl-1H-pyrazol-4-yl)azetidine-1-carbonyl)-5-oxooctahydro-1H-pyrrolo[1,2-a]azepin-6-yl)carbamoyl)benzo [b]thiophen-5-yl)methyl) phosphonic acid] are 3000 to 30000 nM and 100 to 1000 nM.
On the same counts, the results for `O=C(N[C@H]1CCC[C@H]2CC[C@@H](C(=O)N[C@H]3CN(c4ncc[nH]4)C[C@@H]3F)N2C1=O)c1cc2cc([C@H](F)P(=O)(O)O)ccc2s1` [Compound 637, ((R)-fluoro(2-(((3S,6S,9aS)-3-(((3S,4S)-4-fluoro-1-(1H-imidazol-2-yl)pyrrolidin-3-yl)carbamoyl)-5-oxooctahydro-1H-pyrrolo[1,2-a]azepin-6-yl)carbamoyl)benzo [b]thiophen-5-yl)methyl) phosphonic acid] are 300 to 3000 nM and < 100 nM.
On the same counts, the results for `C[C@H]1C[C@H]2CC[C@@H](C(=O)N3CC(c4cnccc4N(C)C)C3)N2C(=O)[C@@H](NC(=O)c2cc3cc(CP(=O)(O)O)ccc3s2)C1` [Compound 638, ((2-(((3S,6S,8R,9aR)-3-(3-(4-(dimethylamino)pyridin-3-yl)azetidine-1-carbonyl)-8-methyl-5-oxooctahydro-1H-pyrrolo[1,2-a]azepin-6-yl)carbamoyl)benzo [b]thiophen-5-yl)methyl) phosphonic acid] are 3000 to 30000 nM and < 100 nM.
For `C[C@@H]1C[C@H]2CC[C@@H](C(=O)N3CC(c4cnccc4N(C)C)C3)N2C(=O)[C@@H](NC(=O)c2cc3cc(CP(=O)(O)O)ccc3s2)C1` [Compound 639, ((2-(((3S,6S,8S,9aR)-3-(3-(4-(dimethylamino)pyridin-3-yl)azetidine-1-carbonyl)-8-methyl-5-oxooctahydro-1H-pyrrolo[1,2-a]azepin-6-yl)carbamoyl)benzo [b]thiophen-5-yl)methyl) phosphonic acid], the IC50 in assay [1] is 3000 to 30000 nM; in assay [2], < 100 nM.
Consider `O=C(N[C@H]1CCCC[C@H]2CC[C@@H](C(=O)NCc3cnc4[nH]cnc4c3)N2C1=O)c1cc2cc(CP(=O)(O)O)ccc2s1` [Compound 640, ((2-(((3S,6S,10aS)-3-(((3H-imidazo[4,5-b]pyridin-6-yl)methyl)carbamoyl)-5-oxodecahydropyrrolo [1,2-a]azocin-6-yl)carbamoyl)benzo [b]thiophen-5-yl)methyl) phosphonic acid], for which the IC50 in assay [1] is 3000 to 30000 nM; in assay [2], 100 to 1000 nM.
The like results for `C/C1=C/C[C@H](NC(=O)c2cc3cc(C(F)(F)P(=O)(O)O)ccc3s2)C(=O)N2[C@H](CC[C@H]2C(=O)N2CC(c3cnccc3C)C2)C1` [Compound 641, (difluoro(2-(((3S,6S,10aR,Z)-9-methyl-3-(3-(4-methylpyridin-3-yl)azetidine-1-carbonyl)-5-oxo-1,2,3,5,6,7,10,10a-octahydropyrrolo[1,2-a]azocin-6-yl)carbamoyl)benzo [b]thiophen-5-yl)methyl) phosphonic acid] were, in that order, 300 to 3000 nM and < 100 nM.
